Experimental data reported in ChEMBL document CHEMBL1201862, “PubChem BioAssay data set” (2004).
Counter-ions that a name gives are not always drawn. Activity calls are given as the source filed them.

Key:
Fatty acid synthase [1] = target: T1, Fatty acid synthase (Homo sapiens, UniProt P49327); assay: FAS thioesterase domain inhibitors, dose response, biochemical, kinetic fluorescence intensity (AID 624326); type: functional;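 also: rate of fluorescence rise from hydrolysis of a fluorogenic O-methyl fluorescein ester substrate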
Beta-galactosidase = Beta-galactosidase (Escherichia coli, UniProt Q8VNN2); assay: beta-galactosidase enzyme inhibitors and activators, dose response, artefact control for CCR6 antagonist project, biochemical, E. coli enzyme, set 3 (AID 504712); type: functional
[2] = target: Heat shock protein HSP 90-alpha (Homo sapiens, UniProt P07900); type: functional, organism-based
Fatty acid synthase [3] = target: T1, Fatty acid synthase; assay: FAS thioesterase domain inhibitors, dose response, biochemical, endpoint fluorescence intensity, uHTS hits (AID 624327); type: functional;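 also: fluorescence from hydrolysis of an O-methyl fluorescein acyl ester substrate by the enzyme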
[4] = cytotoxicity in HEK-293T cells, dose response, cytotoxicity control for BCR NF-kB inhibitor project, luminescence, B-cell screen hits (AID 489021); type: functional, cell-based;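 also: HEK-293T cells carrying an NF-kB luciferase reporter; cells exposed to compound for about 14 hours before viability readout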
[5] = target: Melanin-concentrating hormone receptor 1 (Homo sapiens, UniProt Q99705); assay: Fluorescence-based counterscreen for antagonists of the G-protein coupled receptor 7 (GPR7): cell-based high throughput dose response assay to identify antagonists of the melanin-concentrating hormone receptor 1 (MCHR1).; type: functional
[6] = target: T2, Neuropeptides B/W receptor type 1 (Homo sapiens, UniProt P48145); assay: Fluorescence-based dose response cell-based high throughput screening assay to identify antagonists of the G-protein coupled receptor 7 (GPR7). [Related pubchem assays: 1952 (Screening assay (GPR7 antagonists).), 1880 (Summary AID.)]; type: functional
T2 sequence (P48145 whole entry): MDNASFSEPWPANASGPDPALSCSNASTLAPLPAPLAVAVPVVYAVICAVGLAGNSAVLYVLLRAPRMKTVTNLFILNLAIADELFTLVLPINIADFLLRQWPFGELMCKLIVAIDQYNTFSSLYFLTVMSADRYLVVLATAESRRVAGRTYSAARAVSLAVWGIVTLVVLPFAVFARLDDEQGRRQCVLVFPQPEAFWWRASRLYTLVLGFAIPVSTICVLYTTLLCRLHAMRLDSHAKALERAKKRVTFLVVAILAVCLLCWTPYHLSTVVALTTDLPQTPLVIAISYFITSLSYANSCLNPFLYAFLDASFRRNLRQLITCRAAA

Aspartyl aminopeptidase = target: T3, Aspartyl aminopeptidase (Plasmodium falciparum 3D7, UniProt Q8I2J3)
T3 sequence (Q8I2J3 whole entry): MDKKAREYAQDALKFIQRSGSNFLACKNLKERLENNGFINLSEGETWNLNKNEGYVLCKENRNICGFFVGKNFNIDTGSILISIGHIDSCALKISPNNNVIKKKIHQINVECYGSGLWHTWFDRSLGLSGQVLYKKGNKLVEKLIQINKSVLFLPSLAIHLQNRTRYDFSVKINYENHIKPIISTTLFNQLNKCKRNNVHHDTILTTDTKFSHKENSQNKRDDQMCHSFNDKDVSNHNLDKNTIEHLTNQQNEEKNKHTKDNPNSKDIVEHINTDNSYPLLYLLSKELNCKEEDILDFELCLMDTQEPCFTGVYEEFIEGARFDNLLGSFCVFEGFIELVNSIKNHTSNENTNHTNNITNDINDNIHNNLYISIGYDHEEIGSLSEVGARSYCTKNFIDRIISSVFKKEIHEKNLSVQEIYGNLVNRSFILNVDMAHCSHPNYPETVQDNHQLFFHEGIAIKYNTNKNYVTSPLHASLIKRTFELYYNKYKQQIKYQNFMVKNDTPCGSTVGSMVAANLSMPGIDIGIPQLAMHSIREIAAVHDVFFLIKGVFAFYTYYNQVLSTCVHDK

Procathepsin L = Procathepsin L (Homo sapiens, UniProt P07711)
BJ = assay: cytotoxicity toward Ras-transformed BJeLR fibroblasts, dose response, cell-based, alamar blue fluorescence, cherrypicked samples (AID 2631); type: functional; details: Homo sapiens;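 also: confirmatory dose-response assay in RAS-dependent BJ fibroblasts engineered with TERT, LT and ST, with cytotoxicity read by fluorescence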
[7] = target: Induced myeloid leukemia cell differentiation protein Mcl-1 (Homo sapiens, UniProt Q07820); type: functional
HeLa = assay: HeLa cell cytotoxicity, dose response, cytotoxicity control, 24 h, cherry-picked samples (AID 504726); type: functional, cell-based; details: Homo sapiens;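 also: potency for cytotoxicity as loss of luminescence signal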
[8] = target: G-protein coupled receptor 55 (Homo sapiens, UniProt Q9Y2T6); assay: GPR55 antagonists blocking LPI-driven arrestin recruitment, primary screen, imaging, U2OS, beta-arrestin-GFP, LPI agonist (AID 2013); type: functional;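 also: antagonist potency measured as reduced agonist-driven arrestin aggregation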
[9] = growth suppression of beta-catenin-knockout colon cells, dose response, cell-based, HCT116, human colon tumor (AID 1045); type: functional;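 also: HCT116 colon tumor cells with beta catenin knocked out; cells exposed to compound for 60 hours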
Large T antigen = Large T antigen (Simian virus 40, UniProt P03070); type: functional, Betapolyomavirus macacae;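 also: Confirmatory-stage PubChem screen for compounds that inhibit SV40 T antigen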
[10] = growth suppression of PTEN-null colon cells, dose response, cell-based, HCT116 PTEN knockout (AID 1047); type: functional;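 also: HCT116 colon tumor cells with PTEN knocked out; cells exposed to compound for 60 hours before readout; potency for loss of cell viability measured by luminescence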
H9c2 = assay: cells; type: functional, cell-based; details: Rattus norvegicus, H9c2, Myocardium;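 also: confirmatory concentration-response retest of ultra-high-throughput screening hits for modulation of myocardial damage; cell death induced by hydrogen peroxide oxidative stress; compound pretreatment for 60 min then peroxide exposure for 2 h; potency is for protecting the cells against peroxide damage rather than for killing them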
Interleukin-8 [11] = target: T4, Interleukin-8 (Homo sapiens, UniProt P10145); assay: SAR analysis of GM-Tri-DAP induced IL-8 secretion in MCF-7/NOD1 cells - Set 2. [Related pubchem assays (depositor defined):AID1575, AID1578, AID2333]; type: functional, cell-based
T4 sequence (P10145 whole entry): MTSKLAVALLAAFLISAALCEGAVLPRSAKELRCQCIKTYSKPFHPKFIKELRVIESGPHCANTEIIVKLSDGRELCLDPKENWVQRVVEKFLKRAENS

Tumor necrosis factor = Tumor necrosis factor (Homo sapiens, UniProt P01375); assay: TNFa-triggered NF-kB activation inhibitors, SAR follow-up, cell-based, revised (AID 2337); type: functional
HEK293 = assay: cells; details: Homo sapiens;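 also: cells exposed to compound for 14 hours overnight before viability readout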
[12] = target: T5, Nucleotide-binding oligomerization domain-containing protein 1 (Homo sapiens, UniProt Q9Y239); assay: NOD1 signaling inhibitors, SAR follow-up, revised (AID 2333); type: functional
T5 sequence (Q9Y239 whole entry): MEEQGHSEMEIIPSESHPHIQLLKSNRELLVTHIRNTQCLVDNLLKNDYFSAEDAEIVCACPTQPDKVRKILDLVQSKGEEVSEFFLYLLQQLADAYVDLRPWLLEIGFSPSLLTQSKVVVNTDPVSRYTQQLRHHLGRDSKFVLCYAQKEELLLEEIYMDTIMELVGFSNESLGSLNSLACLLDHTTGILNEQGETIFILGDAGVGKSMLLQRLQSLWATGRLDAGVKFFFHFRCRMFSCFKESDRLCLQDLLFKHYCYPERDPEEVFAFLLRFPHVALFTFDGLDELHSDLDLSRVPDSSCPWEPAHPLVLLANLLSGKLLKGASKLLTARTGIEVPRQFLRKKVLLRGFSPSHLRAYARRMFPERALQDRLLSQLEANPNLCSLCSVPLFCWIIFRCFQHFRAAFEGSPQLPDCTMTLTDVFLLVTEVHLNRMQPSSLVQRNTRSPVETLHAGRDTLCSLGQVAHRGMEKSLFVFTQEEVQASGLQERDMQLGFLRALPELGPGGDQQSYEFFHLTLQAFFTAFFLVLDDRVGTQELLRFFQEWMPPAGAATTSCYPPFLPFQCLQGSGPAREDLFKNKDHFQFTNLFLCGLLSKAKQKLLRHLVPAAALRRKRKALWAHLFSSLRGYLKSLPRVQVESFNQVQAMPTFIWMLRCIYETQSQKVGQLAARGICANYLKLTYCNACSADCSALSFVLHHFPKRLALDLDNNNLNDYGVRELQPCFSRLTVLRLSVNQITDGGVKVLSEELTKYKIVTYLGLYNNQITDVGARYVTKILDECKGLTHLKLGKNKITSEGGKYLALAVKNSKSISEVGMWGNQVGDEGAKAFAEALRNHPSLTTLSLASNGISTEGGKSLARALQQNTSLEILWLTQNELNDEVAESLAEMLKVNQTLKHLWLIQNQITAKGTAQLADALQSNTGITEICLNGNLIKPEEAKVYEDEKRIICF

Interleukin-8 [13] = target: T4, Interleukin-8; assay: SAR analysis of Tumor necrosis factor alpha (TNF-alpha) induced IL-8 secretion in MCF-7/NOD1 cells - Set 2. [Related pubchem assays (depositor defined):AID1575, AID2250, AID2260]; type: functional, cell-based
Hexokinase = target: T6, Hexokinase (Trypanosoma brucei, UniProt Q38C41); assay: Confirmation assay for inhibitors of Trypanosoma brucei hexokinase 1-Analogue-first series. [Related pubchem assays (depositor defined):AID1430, AID1632, AID2516, AID2560, AID2579, AID2600, AID449725, AID492951]; type: functional
T6 sequence (Q38C41 whole entry): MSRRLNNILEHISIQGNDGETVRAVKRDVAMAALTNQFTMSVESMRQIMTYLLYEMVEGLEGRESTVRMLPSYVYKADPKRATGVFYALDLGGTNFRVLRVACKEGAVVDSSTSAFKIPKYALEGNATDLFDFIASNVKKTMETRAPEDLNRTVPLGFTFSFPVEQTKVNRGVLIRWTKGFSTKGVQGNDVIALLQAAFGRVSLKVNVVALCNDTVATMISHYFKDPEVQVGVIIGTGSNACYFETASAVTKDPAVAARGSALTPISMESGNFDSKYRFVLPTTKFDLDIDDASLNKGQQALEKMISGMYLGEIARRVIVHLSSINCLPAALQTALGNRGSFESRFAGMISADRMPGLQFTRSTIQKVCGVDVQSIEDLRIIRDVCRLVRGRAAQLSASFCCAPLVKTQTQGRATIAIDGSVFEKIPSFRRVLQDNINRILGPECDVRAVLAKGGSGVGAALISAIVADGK

Streptokinase A = target: T7, Streptokinase A (Streptococcus pyogenes serotype M1, UniProt P10520); assay: S. pyogenes streptokinase expression inhibitors, potency, dose response, plasminogen activation absorbance, OD405 (AID 1914); type: functional, Streptococcus pyogenes M1 GAS;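 also: secreted streptokinase activity via plasminogen activation per viability signal from cell pellet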
T7 sequence (P10520 whole entry): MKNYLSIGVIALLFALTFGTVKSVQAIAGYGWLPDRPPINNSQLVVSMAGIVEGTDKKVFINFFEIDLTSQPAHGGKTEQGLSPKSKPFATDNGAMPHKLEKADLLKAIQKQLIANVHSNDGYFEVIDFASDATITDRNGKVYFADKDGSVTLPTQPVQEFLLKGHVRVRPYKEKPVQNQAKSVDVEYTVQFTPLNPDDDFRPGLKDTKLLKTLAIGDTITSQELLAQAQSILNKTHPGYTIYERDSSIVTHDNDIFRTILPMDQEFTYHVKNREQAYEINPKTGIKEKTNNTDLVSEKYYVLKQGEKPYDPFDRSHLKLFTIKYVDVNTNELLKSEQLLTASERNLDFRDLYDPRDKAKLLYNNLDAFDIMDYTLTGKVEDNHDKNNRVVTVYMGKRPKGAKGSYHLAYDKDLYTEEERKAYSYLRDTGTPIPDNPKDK

[14] = tested on: Streptococcus sp. 'group A'; assay: growth inhibition of control SK(-) GAS strain, dose response, counter-screen for streptokinase expression inhibitor project, luminescence, kanamycin, BacTiterGlo, confirmation (AID 1900); type: functional, organism-based
Streptococcus = assay: Group A Streptococcus viability loss, dose response, counter-screen for streptokinase expression inhibitor project, luminescence, BacTiterGlo (AID 1915); type: functional, organism-based;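 also: potency for reduction of bacterial viability or growth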
[15] = target: FAD-linked sulfhydryl oxidase ALR (Homo sapiens, UniProt P55789); assay: inhibitors of human ALR sulfhydryl oxidase, dose response, biochemical, H2O2 detection, luminescence, cherry-pick (AID 493248)

Sequence of Procathepsin L (P07711 whole entry): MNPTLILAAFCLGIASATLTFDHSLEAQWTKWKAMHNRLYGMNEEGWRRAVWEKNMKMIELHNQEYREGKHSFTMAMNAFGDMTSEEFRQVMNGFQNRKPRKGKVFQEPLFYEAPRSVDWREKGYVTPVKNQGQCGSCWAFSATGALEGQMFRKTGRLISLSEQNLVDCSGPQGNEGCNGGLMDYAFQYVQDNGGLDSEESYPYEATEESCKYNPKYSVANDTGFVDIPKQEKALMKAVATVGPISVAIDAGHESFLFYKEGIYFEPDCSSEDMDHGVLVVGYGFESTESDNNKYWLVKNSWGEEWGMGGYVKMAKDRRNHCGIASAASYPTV
Sequence of Beta-galactosidase (Q8VNN2 whole entry): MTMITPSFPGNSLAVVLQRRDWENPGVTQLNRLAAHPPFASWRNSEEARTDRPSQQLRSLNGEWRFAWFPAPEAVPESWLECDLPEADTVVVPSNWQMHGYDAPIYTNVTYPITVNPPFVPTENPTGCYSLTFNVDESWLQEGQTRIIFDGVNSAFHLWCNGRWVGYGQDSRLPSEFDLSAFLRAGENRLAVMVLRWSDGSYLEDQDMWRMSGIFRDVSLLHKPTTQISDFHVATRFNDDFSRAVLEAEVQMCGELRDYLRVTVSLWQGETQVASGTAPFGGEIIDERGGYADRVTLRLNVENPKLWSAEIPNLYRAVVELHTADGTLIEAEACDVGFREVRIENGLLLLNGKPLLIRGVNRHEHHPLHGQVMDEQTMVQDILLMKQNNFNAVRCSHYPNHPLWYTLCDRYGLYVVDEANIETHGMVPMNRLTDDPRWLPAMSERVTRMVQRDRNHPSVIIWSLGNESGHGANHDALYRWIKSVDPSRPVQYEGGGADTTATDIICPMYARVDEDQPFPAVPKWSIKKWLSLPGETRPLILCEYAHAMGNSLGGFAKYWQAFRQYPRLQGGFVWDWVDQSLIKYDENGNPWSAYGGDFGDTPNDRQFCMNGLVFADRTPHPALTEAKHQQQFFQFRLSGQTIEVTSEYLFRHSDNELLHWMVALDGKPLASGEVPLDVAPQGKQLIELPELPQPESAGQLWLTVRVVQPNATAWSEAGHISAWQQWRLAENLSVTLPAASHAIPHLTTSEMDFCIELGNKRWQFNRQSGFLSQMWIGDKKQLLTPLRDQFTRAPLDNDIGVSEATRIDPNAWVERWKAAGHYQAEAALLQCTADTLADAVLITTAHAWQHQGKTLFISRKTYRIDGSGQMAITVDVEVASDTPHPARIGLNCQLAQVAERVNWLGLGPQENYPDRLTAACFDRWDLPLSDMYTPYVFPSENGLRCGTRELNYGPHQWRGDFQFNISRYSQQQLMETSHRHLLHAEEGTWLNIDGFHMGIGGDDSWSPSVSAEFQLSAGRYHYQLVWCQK
Sequence of G-protein coupled receptor 55 (Q9Y2T6 whole entry): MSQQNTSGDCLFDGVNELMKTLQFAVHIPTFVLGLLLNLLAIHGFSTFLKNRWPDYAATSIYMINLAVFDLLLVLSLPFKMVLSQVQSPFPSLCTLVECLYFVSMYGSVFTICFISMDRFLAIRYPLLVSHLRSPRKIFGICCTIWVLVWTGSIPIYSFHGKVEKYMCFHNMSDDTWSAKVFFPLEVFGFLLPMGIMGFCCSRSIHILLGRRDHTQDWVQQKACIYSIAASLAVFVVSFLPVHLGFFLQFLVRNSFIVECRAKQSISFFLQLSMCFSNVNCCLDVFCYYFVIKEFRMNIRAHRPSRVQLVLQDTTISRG
T1 sequence (P49327 whole entry, the tested form may be a part): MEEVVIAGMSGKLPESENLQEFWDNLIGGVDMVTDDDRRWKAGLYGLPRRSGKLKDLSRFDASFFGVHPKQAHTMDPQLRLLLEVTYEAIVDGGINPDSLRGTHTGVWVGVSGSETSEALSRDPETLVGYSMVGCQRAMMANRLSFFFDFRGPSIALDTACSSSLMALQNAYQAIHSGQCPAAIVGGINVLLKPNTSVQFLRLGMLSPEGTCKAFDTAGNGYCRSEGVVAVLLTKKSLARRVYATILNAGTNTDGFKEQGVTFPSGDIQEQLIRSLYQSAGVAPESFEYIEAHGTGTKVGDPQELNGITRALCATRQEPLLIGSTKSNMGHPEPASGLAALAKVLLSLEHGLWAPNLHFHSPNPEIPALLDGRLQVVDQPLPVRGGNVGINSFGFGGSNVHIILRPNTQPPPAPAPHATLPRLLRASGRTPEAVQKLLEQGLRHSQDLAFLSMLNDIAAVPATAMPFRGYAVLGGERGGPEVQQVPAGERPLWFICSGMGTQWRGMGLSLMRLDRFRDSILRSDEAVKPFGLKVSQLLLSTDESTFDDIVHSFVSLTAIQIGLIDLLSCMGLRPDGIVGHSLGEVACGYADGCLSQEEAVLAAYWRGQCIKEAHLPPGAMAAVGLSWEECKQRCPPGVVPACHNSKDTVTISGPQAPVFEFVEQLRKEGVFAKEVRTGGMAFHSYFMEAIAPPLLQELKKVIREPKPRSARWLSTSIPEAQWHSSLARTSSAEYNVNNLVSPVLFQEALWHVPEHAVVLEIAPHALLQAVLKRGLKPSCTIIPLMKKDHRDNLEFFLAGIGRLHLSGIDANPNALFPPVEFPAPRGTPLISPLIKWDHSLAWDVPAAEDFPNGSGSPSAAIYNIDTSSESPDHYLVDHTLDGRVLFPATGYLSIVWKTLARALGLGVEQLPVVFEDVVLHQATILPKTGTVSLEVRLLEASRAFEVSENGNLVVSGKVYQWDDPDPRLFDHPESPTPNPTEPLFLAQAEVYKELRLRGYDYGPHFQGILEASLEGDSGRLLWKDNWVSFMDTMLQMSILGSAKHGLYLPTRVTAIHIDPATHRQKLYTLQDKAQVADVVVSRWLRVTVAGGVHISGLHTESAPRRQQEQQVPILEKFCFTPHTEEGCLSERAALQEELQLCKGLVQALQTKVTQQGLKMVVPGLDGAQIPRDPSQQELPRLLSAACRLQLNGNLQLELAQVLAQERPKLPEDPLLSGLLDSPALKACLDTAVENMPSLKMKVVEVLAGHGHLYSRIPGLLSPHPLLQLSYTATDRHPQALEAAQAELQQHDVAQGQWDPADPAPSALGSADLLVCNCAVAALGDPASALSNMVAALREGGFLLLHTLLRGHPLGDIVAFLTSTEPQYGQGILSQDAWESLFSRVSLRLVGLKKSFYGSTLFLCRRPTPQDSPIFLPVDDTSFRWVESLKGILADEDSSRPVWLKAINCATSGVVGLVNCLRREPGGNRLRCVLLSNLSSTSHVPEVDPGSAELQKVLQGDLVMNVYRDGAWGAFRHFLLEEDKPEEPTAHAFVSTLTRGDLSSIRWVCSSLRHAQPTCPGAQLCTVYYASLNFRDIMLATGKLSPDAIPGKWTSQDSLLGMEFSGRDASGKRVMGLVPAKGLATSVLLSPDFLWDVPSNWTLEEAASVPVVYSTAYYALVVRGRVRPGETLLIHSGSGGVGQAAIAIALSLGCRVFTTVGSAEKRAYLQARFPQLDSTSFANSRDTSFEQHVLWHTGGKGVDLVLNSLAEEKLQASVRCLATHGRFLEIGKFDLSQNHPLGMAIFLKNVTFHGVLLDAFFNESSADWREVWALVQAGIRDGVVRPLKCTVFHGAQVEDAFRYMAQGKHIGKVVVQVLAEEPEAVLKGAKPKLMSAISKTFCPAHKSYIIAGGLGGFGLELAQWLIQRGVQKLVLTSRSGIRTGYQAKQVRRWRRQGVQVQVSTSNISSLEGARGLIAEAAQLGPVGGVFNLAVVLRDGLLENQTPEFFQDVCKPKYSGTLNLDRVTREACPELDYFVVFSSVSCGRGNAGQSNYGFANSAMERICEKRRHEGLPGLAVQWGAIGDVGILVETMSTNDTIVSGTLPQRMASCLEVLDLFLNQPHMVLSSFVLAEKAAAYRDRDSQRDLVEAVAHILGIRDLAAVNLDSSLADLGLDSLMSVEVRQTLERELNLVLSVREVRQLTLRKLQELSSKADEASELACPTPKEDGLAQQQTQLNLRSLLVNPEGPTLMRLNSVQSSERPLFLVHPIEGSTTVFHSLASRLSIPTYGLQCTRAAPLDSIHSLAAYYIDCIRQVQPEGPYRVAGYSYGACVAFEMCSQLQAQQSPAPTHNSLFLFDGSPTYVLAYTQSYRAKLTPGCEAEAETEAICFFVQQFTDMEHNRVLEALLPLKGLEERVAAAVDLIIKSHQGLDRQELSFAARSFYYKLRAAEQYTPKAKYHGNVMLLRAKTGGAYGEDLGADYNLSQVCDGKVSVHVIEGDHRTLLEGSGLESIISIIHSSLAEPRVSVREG
Sequence of Melanin-concentrating hormone receptor 1 (Q99705 whole entry): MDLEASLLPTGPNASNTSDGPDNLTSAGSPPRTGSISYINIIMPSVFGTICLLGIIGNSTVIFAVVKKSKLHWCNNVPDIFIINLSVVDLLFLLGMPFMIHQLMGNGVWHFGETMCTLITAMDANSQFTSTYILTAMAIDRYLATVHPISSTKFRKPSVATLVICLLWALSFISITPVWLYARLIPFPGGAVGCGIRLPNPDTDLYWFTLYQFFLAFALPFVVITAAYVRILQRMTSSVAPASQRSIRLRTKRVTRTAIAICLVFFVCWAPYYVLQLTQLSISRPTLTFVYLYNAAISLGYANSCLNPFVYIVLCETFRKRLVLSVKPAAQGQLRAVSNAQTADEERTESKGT
Sequence of Induced myeloid leukemia cell differentiation protein Mcl-1 (Q07820 whole entry): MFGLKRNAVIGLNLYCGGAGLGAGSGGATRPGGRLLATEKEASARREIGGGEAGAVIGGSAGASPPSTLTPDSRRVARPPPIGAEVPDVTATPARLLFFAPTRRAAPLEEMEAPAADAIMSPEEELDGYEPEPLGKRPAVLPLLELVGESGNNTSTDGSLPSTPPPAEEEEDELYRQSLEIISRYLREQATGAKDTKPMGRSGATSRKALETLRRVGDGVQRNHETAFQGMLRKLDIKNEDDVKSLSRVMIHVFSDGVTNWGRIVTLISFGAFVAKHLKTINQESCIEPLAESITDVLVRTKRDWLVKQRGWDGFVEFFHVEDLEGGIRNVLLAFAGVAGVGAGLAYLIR

N#C/C(=C\c1cccc([N+](=O)[O-])c1)C(=O)NCc1ccc(Cl)cc1
IC50 (Fatty acid synthase [1]): 4.11 µM (active) | IC50 (Beta-galactosidase): > 66.6 µM (inactive) | AC50 [2]: 1.93 µM (active) | IC50 (Fatty acid synthase [3]): 4.48 µM (active)

COc1ccc(N(CC(=O)N2CCN(c3ccc(Cl)cc3)CC2)S(=O)(=O)c2c(C)n[nH]c2C)cc1
IC50 [4]: > 80 µM (inactive)

CCOC(=O)COc1c(Cl)cc(C2NC(S)=NC(c3ccccc3)=C2C(C)=O)cc1OC (stereo not given)
IC50 [5]: > 43.8 µM (not active) | IC50 [6]: > 43.8 µM (not active)

COc1ccc(C2=CC(=O)C=CC2=O)cc1
IC50 (Aspartyl aminopeptidase): 6.85 µM (active) | IC50 (Procathepsin L): > 59.6 µM (not active) | EC50 (BJ): > 133 µM (inactive) | IC50 [7]: 5.43 µM (active)

Cc1noc(C)c1CSCC(=O)Nc1nc2c(F)cc(F)cc2s1
AC50 (HeLa): > 350 µM (inactive)

O=C(c1cccc(Oc2ccc([N+](=O)[O-])cc2Cl)c1)N1CCCCC1
IC50 [8]: 5.09 µM (active)

Cc1nn(-c2nc3ccccc3[nH]2)c(N)c1-c1ccccc1
IC50 (Beta-galactosidase): > 66.6 µM (inactive)

Cc1csc(NC(=O)NC2(C(F)(F)F)Oc3ccccc3O2)n1
EC50 [9]: 21.9 µM (active) | IC50 (Large T antigen): 13.3 µM (active) | IC50 (Aspartyl aminopeptidase): 2.02 µM (active) | IC50 (Procathepsin L): > 59.6 µM (not active) | EC50 [10]: 24.8 µM (active)

COc1cc(NC(=O)c2ccco2)c(OC)cc1NC(=O)c1cc(OC)c(OC)c(OC)c1
IC50 [4]: 41.3 µM (inactive) | IC50 (H9c2): 14.3 µM (active)

Cc1ccc(S(=O)(=O)n2c(=S)[nH]c3cc(C)ccc32)cc1
IC50 (Interleukin-8 [11]): > 25 µM (inactive) | IC50 (Tumor necrosis factor): > 20 µM (inactive) | IC50 (HEK293): > 20 µM (inactive) | IC50 [12]: > 20 µM (inactive) | IC50 (Interleukin-8 [13]): > 25 µM (inactive)

Fc1ccc(CSc2ncnc3scc(-c4ccccc4)c23)cc1
IC50 [8]: 2.16 µM (active)

CCC(C)(C(=O)NC1CCCCC1)N(Cc1ccco1)C(=O)c1ccc2c(c1)OCO2 (stereo not given)
IC50 [5]: > 43.8 µM (not active) | IC50 [6]: > 43.8 µM (not active)

Cc1csc(NC(=O)/C=C/c2ccc3c(c2)OCO3)n1
IC50 [4]: > 80 µM (inactive)

O=C(Cn1sc2ccccc2c1=O)Nc1cccc(Br)c1
IC50 (Hexokinase): > 25 µM (inactive)

O=C(Cn1sc2ccccc2c1=O)Nc1ccccc1Cl
IC50 (Hexokinase): 4.16 µM (active)

COc1ccc(NC(=O)Nc2ccccc2C(=O)O)cc1
IC50 (Hexokinase): > 25 µM (inactive)

Cc1cccc(/C=N/NC(=O)c2ccccc2OCc2cccc(Br)c2)n1
IC50 (Beta-galactosidase): > 66.6 µM (inactive) | EC50 (Streptokinase A): 16.1 µM (active) | EC50 [14]: 11 µM (active) | EC50 (Streptococcus): 21.5 µM (active)

NCCc1ccc(O)c(O)c1 [DOPAMINE HYDROCHLORIDE]
IC50 (Aspartyl aminopeptidase): 1.98 µM (active) | IC50 (Procathepsin L): > 59.6 µM (not active) | AC50 [15]: 1.42 µM (active)
